Assay results: patent US9237761B2, “Methods and diets for lowering glucose and/or IGF-1 levels” (priority 2013, dated 2016)

Legend:
[1] = 24 mg/kg i.v., mice fed ad lib AIN93G
4T1 breast cancer = 4T1 breast cancer subcutaneous tumor progression with cisplatin; format: in vivo, BalB/C mice; settings: three cycles, 12, 8, 8 mg/kg i.v. days 15, 33, 44
Procedure: Murine 4T1 breast cancer and GL26 glioma cells were maintained in DMEM (Invitrogen) supplemented with 10% fetal bovine serum (FBS) at 37° C. under 5% CO2. Cells in log phase growth were washed and suspended in PBS at 2×10^6 cells/mL and injected subcutaneously (s.c., 2×10^5 cells/mouse in 100 μL PBS) in the lower back region of the mouse. Tumor size was measured using a caliper. To mimic multi-cycle treatments in humans, mice were treated intravenously (i.v., lateral tail vein) with Cisplatin (Teva Parenteral Medicines Inc.) three times on days 15, 33 and 44 after tumor inoculation at 12, 8 and 8 mg/kg body weight, respectively. Mice were monitored daily and animals showing signs of severe stress, deteriorating health status or excess tumor load (2000 mm^3) were designated as moribund and euthanized.
The efficacy of STS in augmenting the treatment of various cancers is twofold: it protects against chemotherapy-induced toxicity to normal cells/tissues and sensitizes malignant cells to chemotherapeutic agents. […] To test whether a short-term intermittent 50% CR (ICR) diet could result in similar beneficial effects as the established fasting protocols, murine 4T1 breast cancer cells were implanted subcutaneously into female BalB/C mice and monitored the tumor progression. […]

| Structure (SMILES) | survival by day 25 post injection [1] [%] | tumor volume vs untreated mice (4T1 breast cancer) |
| --- | --- | --- |
| COc1cccc2c1C(=O)c1c(O)c3c(c(O)c1C2=O)C[C@@](O)(C(=O)CO)C[C@@H]3O[C@H]1C[C@H](N)[C@H](O)[C@H](C)O1 [DXR, Doxorubicin] | 16 |  |
| N.N.[Cl][Pt][Cl] [cisplatin, Cisplatin] |  | approximately half the size |
